In assay [1] the test system is blood platelet aggregation. The assay is described as follows: Blood platelet aggregation inhibition in vitro in rabbit PRP, ADP induced. It counts as cell-based, male, New Zealand strain house rabbit. The note with it: Oryctolagus cuniculus, ADP final concentration 5 μM, 37° C., 3 minutes preincubation, 50% inhibition of maximum aggregation rate. How it is done: (§1) Citrated blood (one volume of 3.2% sodium citrate; 9 volumes of blood) was collected from carotid artery of male, New Zealand strain house rabbit, centrifuged at 150 g for 15 minutes to give platelet rich plasma (PRP) as a supernatant, and the remaining blood was centrifuged at 1500 g for 10 minutes to give platelet poor plasma (PPP) as a supernatant. The platelet count of PRP was adjusted to 50-60×10^4 /μl by dilution of PPP. Blood platelet aggregation was carried out according to the method of Born [Born, G. V. R., Nature, 194, 927 (1962)]. Namely, 25 μl of the test drug, (all the test drugs were dissolved in dimethyl sulfoxide and adjusted to the desired concentration with physiological saline solution), was added to 250 μl of PRP, and the mixture was incubated at 37° C. for 3 minutes. 25 μl of the aggregation inducing substance [adenosine diphosphate (ADP); final concentration 5 μM or collagen: final concentration 5 μg/ml] was added, the mixture was measured for 5 minutes by blood platelet aggregation ability measurement apparatus (Aggricoda TM-PA-3210, Kyoto Dai-ichi Kagaku) to obtain the maximum aggregation rate, and there was calculated the concentration of the test drug (ICP50) which brings about 50% inhibition to the maximum aggregation rate obtained by adding the aggregation inducing substance to PRP containing the solvent only.
(§2) The compound numbers in Table 1 correspond to those in the Examples described below.

The test system of assay [2] is blood platelet aggregation. Put plainly: Blood platelet aggregation inhibition in vitro in rabbit PRP, collagen induced. In kind it is cell-based, male, New Zealand strain house rabbit. To be noted: Oryctolagus cuniculus, collagen final concentration 5 μg/ml, 37° C., 3 minutes preincubation, 50% inhibition of maximum aggregation rate. On the procedure: as §1, §2

Broadly, the IC50 is the midpoint of a concentration-inhibition curve. Low values mean greater potency in that assay, high ones weaker potency in that assay.

On to `Cc1ccccc1N1C(=O)/C(=C/C(=O)c2ccc(F)cc2)C1c1ccc(F)cc1` (centres unmarked) [Compound 78], for which the IC50 in assay [1] is 6.2 µM; in assay [2], 8.3 µM.
For `Cc1ccccc1N1C(=O)/C(=C/C(=O)c2ccc([N+](=O)[O-])cc2)C1c1ccc(F)cc1` (centres unmarked) [Compound 79] the same measures were 4.3 µM and 5.1 µM.
For `O=C(/C=C1/C(=O)N(c2ccccc2)C1c1ccccc1F)c1ccc(F)cc1` (centres unmarked) [Compound 80] the same measures were 7.4 µM and 10.9 µM.
For `O=C(/C=C1/C(=O)N(c2ccccc2)C1c1ccccc1F)c1ccc([N+](=O)[O-])cc1` (centres unmarked) [Compound 81] the same measures were 5.5 µM and 7 µM.
`Cc1ccccc1N1C(=O)/C(=C/C(=O)c2ccc(F)cc2)C1c1ccc(Br)cc1` (centres unmarked) [Compound 85]: the IC50 in assay [1] stood at 17.7 µM; in assay [2], 14.4 µM.
The corresponding values for `Cc1ccccc1N1C(=O)/C(=C/C(=O)c2ccc([N+](=O)[O-])cc2)C1c1ccc(Br)cc1` (centres unmarked) [Compound 86] are 6.2 µM and 5.3 µM.
The corresponding values for `Cc1ccc(CN2C(=O)/C(=C/C(=O)c3ccc([N+](=O)[O-])cc3)C2c2ccccc2)cc1` (centres unmarked) [Compound 91] are 9.7 µM and 6.7 µM.
The corresponding values for `COc1ccc(CN2C(=O)/C(=C/C(=O)c3ccc([N+](=O)[O-])cc3)C2c2ccccc2)cc1` (centres unmarked) [Compound 92] are 7.3 µM and 6.5 µM.
Consider `O=C(/C=C1/C(=O)N(Cc2ccc(F)cc2)C1c1ccccc1)c1ccc([N+](=O)[O-])cc1` (centres unmarked) [Compound 93], for which the IC50 in assay [1] was found to be 18.3 µM; in assay [2], 8.7 µM.
For `COc1ccccc1CN1C(=O)/C(=C/C(=O)c2ccc([N+](=O)[O-])cc2)C1c1ccccc1` (centres unmarked) [Compound 94], the IC50 amounted to 8 µM in assay [1] and 6.9 µM in assay [2].
For `O=C(/C=C1/C(=O)N(Cc2ccccc2C(F)(F)F)C1c1ccccc1)c1ccc([N+](=O)[O-])cc1` (centres unmarked) [Compound 95] the same measures were 15.4 µM and 2.5 µM.
With `O=C(/C=C1/C(=O)N(Cc2ccccc2F)C1c1ccccc1)c1ccc([N+](=O)[O-])cc1` (centres unmarked) [Compound 96], the IC50 is 3.9 µM in assay [1] and 3.7 µM in assay [2].
The corresponding values for `O=C(/C=C1/C(=O)N(Cc2cccc(Cl)c2)C1c1ccccc1)c1ccc([N+](=O)[O-])cc1` (centres unmarked) [Compound 97] are 16 µM and 3.2 µM.
As to `O=C(/C=C1/C(=O)N(Cc2ccc(Cl)cc2)C1c1ccccc1)c1ccc([N+](=O)[O-])cc1` (centres unmarked) [Compound 98], the IC50 was 11.2 µM in assay [1] and 8.8 µM in assay [2].
The corresponding values for `O=C(/C=C1/C(=O)N(Cc2ccc(Cl)cc2Cl)C1c1ccccc1)c1ccc([N+](=O)[O-])cc1` (centres unmarked) [Compound 103] are 18.5 µM and 6.7 µM.
For `COc1ccc(Cc2nccc3cc(OC)c(OC)cc23)cc1OC` [papaverin, reference compound] the same measures were greater than 100 µM and greater than 100 µM.
